In patent US5366992A, “Benzoic acid substituted derivatives having cardiovascular activity” (Italfarmaco S.p.A., priority 1990, dated 1994):
Counter-ions that a name gives are not always drawn.

Assays:
[1] = tested on: noradrenaline-contracted rat aortha strip; experiment: in vitro vasorelaxing activity, noradrenaline-contracted rat aortha strip; details: concentration inhibiting by 50% the contraction of noradrenaline-contracted rat aortha strip
Method: The in vitro vasorelaxing activity of the compounds of the present invention was evaluated in the test of the noradrenaline-contracted rat aortha strip. The test was carried out according to the procedure described by K. Murakami et al., Eur. J. Pharmacol., 141, 195, 1987. The IC50 values, i.e. the concentration of active substance, expressed in mol/1, inhibiting by 50% the aortha strip contraction, were evaluated.

[2] = tested on: Sprague Dawley anesthetized rats; experiment: in vivo antianginal activity, Arg-vasopressin-induced coronaric spasm (T wave increase) in anesthetized rats; design: species or system Sprague Dawley rat; details: 3 mg/kg through gastric probe, one hour before i.v. Arg-vasopressin (1 I.U./kg)
Method: In vivo antianginal activity was evaluated in Sprague Dawley anesthetized rats of 350-400 g mean weight, according to the procedure by M. Leitold et al., Arzneim. Forsch. 36, 1454, 1986. The test was carried out by intravenously administering to the animal one I.U./kg (equivalent to 3 mg/kg) of Arg-vasoprexine inducing a choronaric spasm which can be reproduced and electrocardiographically evidenced by an increase in the T wave. The compounds of the invention were administered through a gastric probe at a dose of 3 mg/kg, one hour before administering Arg-vasoprexine.The antianginal effect was expressed as percent inhibition of the increase in T wave versus controls.

Structure (SMILES) | IC50 [1] | % Inhibition of the increase in T waves versus controls [2]
CC(=O)Oc1ccccc1C(=O)OCCO[N+](=O)[O-] [8 B] | 0.013 µM | 61%
O=C(NCCO[N+](=O)[O-])c1ccccc1O [9 A] | 0.16 µM | 42%
O=C(NCCO[N+](=O)[O-])c1ccccc1OC(=O)C1CSCN1 (centres unmarked) [Example 9, N-(2-Nitroxyethyl)-2-[(4-thiazolidinyl)carbonyloxy]benzamide hydrochloride] | 0.54 µM | –
CC(=O)Oc1ccccc1C(=O)NCCCCCO[N+](=O)[O-] [4 B] | 0.11 µM | 53%
CC(=O)Oc1ccc(C(=O)NCCO[N+](=O)[O-])cc1 [Example 2, 4-Acetoxy-N-(2-nitroxyethyl)-benzamide] | 2.3 µM | 55%
CC(=O)Oc1cccc(C(=O)NCCCCCO[N+](=O)[O-])c1 [3 B] | 1.2 µM | –
CC(=O)Oc1cccc(C(=O)NCCO[N+](=O)[O-])c1 [Example 1, 3-Acetoxy-N-(2-nitroxyethyl)-benzamide] | 0.16 µM | –
